The test system of data set [1] is recombinant luciferase-expressing HIV-1. Format: cell-based. As to conditions: for IC50: recombinant luciferase-expressing HIV-1, mean ± standard error, triplicate, read-out: IC50 viral entry. The protocol: The potency of C34 peptides in inhibiting viral infection and the HIV-1 infection inhibitory activity of the D-peptides were assayed using recombinant luciferase-expressing HIV-1 (Chen, B. K. et al., J. Virol., 68:654 (1994); Malashkevich, V. N., et al., Proc. Natl. Acad. Sci., USA, 95:9134 (1998)).
(§1) The apparent melting temperatures (Tm) were estimated from the thermal dependence of the CD signal at 222 nm. Inhibition of viral entry was measured in a cell-culture infection assay using recombinant luciferase-expressing HIV-1. Inhibition of cell-cell fusion was measured in a syncytium assay. The means and standard errors are from triplicate trials.

In data set [2] the test system is syncytia formation between Chinese hamster ovary cell expressing HXB2 envelope and HeLa-CD4-LTR-Beta-gal cells. The protocol:
In each instance, a blocking group (e.g., an acetyl group) was present at the N terminus and a CONH2 (amide) was present at the C-terminus.
Inhibition of cell/cell fusion (i.e., syncytia formation) was assayed by co-culturing Chinese hamster ovary cell expressing HXB2 envelope (K. Kozarsky, et al., J. Acquir. Immune. Defic. Syndr., 2:163 (1989) and the HeLa-CD4-LTR-Beta-gal cells (M. Emerman, NIH AIDS Reagent program) in the presence of varying concentration of peptide. When mixed, these cells form syncytia, or multi-nucleated cells, which express β-galactosidase. Approximately twenty hours after co-culturing the cells, the monolayers were stained with 5-bromo-4-chloro-3-indolyl-β-D-galactoside to visualize the syncytia. The syncytia are visualized with a microscope and counted manually (a syncytia is scored as a fused cell containing three or more nuclei). The IC50 was calculated from fitting the data to a Langmuir equation [y=k/(1+[peptide]/IC50)+x], where y=number of syncytia and k and x are scaling constants.

Data set [3] addresses T1, N36 peptide (Human immunodeficiency virus type 1 group M subtype B, UniProt P04578).
T1 construct: made in house; host or cells: chemical peptide synthesis
Format: physicochemical, HIV-1. As to conditions: for Tm (apparent melting temperature) of N36/C34 complex: C34 peptide 10 μM + N36 10 μM, phosphate-buffered saline pH 7.0, CD signal at 222 nm; for mean residue ellipticity [θ]222 of N36/C34 complex: CD at 222 nm, 0° C., PBS pH 7.0. The protocol:
CD measurements were performed in phosphate-buffered saline (50 mM sodium phosphate, 150 mM NaCl, pH 7.0) with an Aviv Model 62DS spectrometer as previously described (M. Lu, S. C. Blacklow, P. S. Kim, Nat. Struct. Biol., 2:1075 (1995)). The apparent melting temperature of each complex was estimated from the maximum of the first derivative of [θ]222 with respect to temperature.
as §1

The mark [4] stands for this setting: read-out: IC50 cell fusion, syncytium assay, mean ± standard error, triplicate.

The IC50 is the point on the concentration scale where inhibition reaches its midpoint.

Where two headings read alike, the source gives them in different places. Positions of bridges follow the written chain, without caps; N, C: chain ends. Non-standard residues stand in square brackets, D forms with d.

T1 sequence (P04578 546-581): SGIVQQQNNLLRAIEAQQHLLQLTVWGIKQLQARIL

For the compound `CC(=O)N[C@H](CCCCN)C(=O)N[C@H](CCCCN)C(=O)NCC(=O)N[C@H](C)C(=O)N[C@@H]1CSSC[C@H](C(=O)N[C@H](C)C(=O)N[C@H](C)C(N)=O)NC(=O)[C@@H](CC(C)C)NC(=O)[C@@H](Cc2c[nH]c3ccccc23)NC(=O)[C@@H](C)NC(=O)[C@@H](Cc2c[nH]c3ccccc23)NC(=O)[C@@H](CCC(=O)O)NC(=O)[C@@H](Cc2c[nH]c3ccccc23)NC(=O)CNC(=O)[C@@H](CC(C)C)NC(=O)[C@@H](CC(C)C)NC(=O)[C@@H](CCC(=O)O)NC1=O` [Peptide D10pep5], in data set [1] (infectivity assay), the “inhibition of infection of cells” value is reported as “inhibit infection of cells”. The IC50 in data set [2] (read-out: IC50 syncytia formation, D-peptide, N-terminal acetyl, C-terminal amide) was roughly 6000 nM.
Turning to `CC[C@H](NC(=O)[C@H](CCC(=O)O)NC(=O)[C@H](CCSC)NC(=O)[C@H](Cc1c[nH]c2ccccc12)NC(C)=O)C(=O)N[C@@H](CC(=O)O)C(=O)N[C@@H](CCCNC(=N)N)C(=O)N[C@@H](CCC(=O)O)C(=O)N[C@H](C(=O)N[C@@H](CC(N)=O)C(=O)N[C@@H](CC(N)=O)C(=O)N[C@@H](Cc1ccc(O)cc1)C(=O)N[C@H](C(=O)N[C@@H](CO)C(=O)N[C@@H](CC(C)C)C(=O)N[C@H](C(=O)N[C@@H](Cc1c[nH]cn1)C(=O)N[C@@H](CO)C(=O)N[C@@H](CC(C)C)C(=O)N[C@H](C(=O)N[C@@H](CCC(=O)O)C(=O)N[C@@H](CCC(=O)O)C(=O)N[C@@H](CO)C(=O)N[C@@H](CCC(N)=O)C(=O)N[C@@H](CC(N)=O)C(=O)N[C@@H](CCC(N)=O)C(=O)N[C@@H](CCC(N)=O)C(=O)N[C@@H](CCC(=O)O)C(=O)N[C@@H](CCCCN)C(=O)N[C@@H](CC(N)=O)C(=O)N[C@@H](CCC(=O)O)C(=O)N[C@@H](CCC(N)=O)C(=O)N[C@@H](CCC(=O)O)C(=O)N[C@@H](CC(C)C)C(=O)N[C@@H](CC(C)C)C(N)=O)[C@@H](C)CC)[C@@H](C)CC)[C@@H](C)O)[C@@H](C)CC` [Trp^631→Abu], in data set [3], the “Tm (apparent melting temperature) of N36/C34 complex” value (“Tm (apparent melting temperature)” below) was 43 °C and the “mean residue ellipticity [θ]222 of N36/C34 complex” value (shortened to “mean residue ellipticity”) is reported as −23.2 10^3 deg cm^2 dmol^−1.
Regarding `CC[C@H](C)[C@H](NC(=O)[C@H](CC(C)C)NC(=O)[C@H](CO)NC(=O)[C@H](Cc1c[nH]cn1)NC(=O)[C@@H](NC(=O)[C@H](CC(C)C)NC(=O)[C@H](CO)NC(=O)[C@@H](NC(=O)[C@H](Cc1ccc(O)cc1)NC(=O)[C@H](CC(N)=O)NC(=O)[C@H](CC(N)=O)NC(=O)[C@@H](NC(=O)[C@H](CCC(=O)O)NC(=O)[C@H](CCCNC(=N)N)NC(=O)[C@H](CC(=O)O)NC(=O)[C@H](C)NC(=O)[C@H](CCC(=O)O)NC(=O)[C@H](CCSC)NC(=O)[C@H](Cc1c[nH]c2ccccc12)NC(C)=O)[C@@H](C)CC)[C@@H](C)O)[C@@H](C)CC)C(=O)N[C@@H](CCC(=O)O)C(=O)N[C@@H](CCC(=O)O)C(=O)N[C@@H](CO)C(=O)N[C@@H](CCC(N)=O)C(=O)N[C@@H](CC(N)=O)C(=O)N[C@@H](CCC(N)=O)C(=O)N[C@@H](CCC(N)=O)C(=O)N[C@@H](CCC(=O)O)C(=O)N[C@@H](CCCCN)C(=O)N[C@@H](CC(N)=O)C(=O)N[C@@H](CCC(=O)O)C(=O)N[C@@H](CCC(N)=O)C(=O)N[C@@H](CCC(=O)O)C(=O)N[C@@H](CC(C)C)C(=O)N[C@@H](CC(C)C)C(N)=O` [Trp^631→Ala], the IC50 in data set [1] was determined as 40 ± 4.3 nM. In data set [3], the “Tm (apparent melting temperature)” value is 37 °C and the “mean residue ellipticity” value is on record as −24.9 10^3 deg cm^2 dmol^−1.
“Ac-KKKKGACELLGWEWAWLCAA-CONH2 (Ac-KKKKG[dA][dC][dE][dL][dL]G[dW][dE][dW][dA][dW][dL][dC][dA][dA]-NH2; disulfide 7-18 (inferred); not fully specified (residues 1, 2, 3, 4); printed as Ac-KKKKGACELLGWEWAWLCAA-CONH2) [Peptide D10pep5a]”: the “IC50 for inhibition of syncytia formation relative to parent peptide without the added lysines” value in data set [2] (two additional N-terminal lysines vs parent D-peptide) is listed as “approximately 2 fold”.
As to “Ac-WMEFDREINNYTSLIHSLIEESQNQQEKNEQELL-NH2 [Trp^631→Phe]”, the IC50 in data set [1] was found to be 3.61 ± 0.8 nM. In data set [2] (setting [4]), the IC50 is 1.6 ± 0.05 nM. Further, in data set [3], the “Tm (apparent melting temperature)” value was 59 °C and the “mean residue ellipticity” value is on record as −26.3 10^3 deg cm^2 dmol^−1.
The corresponding values for “Ac-WMEGDREINNYTSLIHSLIEESQNQQEKNEQELL-NH2 [Trp^631→Gly]” are 38 ± 6.1 nM, 25 ± 3.8 nM, 35 °C and 17.1 10^3 deg cm^2 dmol^−1.
The like results for “Ac-WMELDREINNYTSLIHSLIEESQNQQEKNEQELL-NH2 [Trp^631→Leu]” were, in that order, 5.3 ± 1 nM, 3.2 ± 0.1 nM, 50 °C and −26.7 10^3 deg cm^2 dmol^−1.
The like results for “Ac-WMEVDREINNYTSLIHSLIEESQNQQEKNEQELL-NH2 [Trp^631→Val]” were, in that order, 13 ± 12.8 nM, 4.5 ± 0.09 nM, 43 °C and −23.9 10^3 deg cm^2 dmol^−1.
Take “Ac-WMEWDAEINNYTSLIHSLIEESQNQQEKNEQELL-NH2 [Arg^633→Ala]”: the “effect of mutation on inhibitory activity of C34” value in data set [1] (HIV-1 viral entry and syncytium assays, vs wildtype C34) was “little effect”. For the same compound, the IC50 in data set [1] was determined as 2.6 ± 0.89 nM. In data set [2] (setting [4]), the half-inhibitory concentration (IC50) came out at 0.76 ± 0.07 nM. Besides, in data set [3], the “Tm (apparent melting temperature)” value is 65 °C and the “mean residue ellipticity” value is given as −30.7 10^3 deg cm^2 dmol^−1.
As to “Ac-WMEWDREANNYTSLIHSLIEESQNQQEKNEQELL-NH2 [Ile^635→Ala]”, the “decrease in inhibitory activity relative to wildtype C34” value in data set [1] (HIV-1 viral entry and syncytium assays) was roughly 2 fold. Moreover, the IC50 in data set [1] is 4.1 ± 0.91 nM. In addition, the IC50 in data set [2] (setting [4]) was 0.96 ± 0.12 nM. Also, in data set [3], the “Tm (apparent melting temperature)” value amounted to 55 °C and the “mean residue ellipticity” value is −25.9 10^3 deg cm^2 dmol^−1.

These data come from patent US6841657B2, “Inhibitors of HIV membrane fusion” (priority 1998, dated 2005).
